Measured values reported in paper PMC8595862 (Environmental toxicology and pharmacology, 2021).
Structures can show the parent of a compound that is named as a salt.

Assays:
[1] = rats, 0.6 mg/kg intravenous injection; ref Grimm et al., 2015a; cited from earlier work
[2] = system: human hepatic microsomal sulfatase; assay: Human hepatic microsomal sulfatase assay; format: in vitro ADME; details: relative to DHEA sulfate
[3] = human cohort exposed to PCBs; calculated; ref Quinete et al., 2017; cited from earlier work

| SMILES | Catalytic efficiency compared with DHEA sulfate [2] | Plasma half-life [3] [years] | also measured |
| --- | --- | --- | --- |
| O=S(=O)(O)Oc1ccc(-c2cccc(Cl)c2)cc1Cl [4-PCB 11 Sulfate, 3,3’-dichloro-4-biphenylsulfate] |  |  | Tissue uptake, metabolism and urinary excretion [1]: taken up by tissues and further metabolized, with only a small percentage excreted in the urine |
| O=S(=O)(O)Oc1cc(Cl)c(-c2cc(Cl)ccc2Cl)cc1Cl [4-PCB 52 Sulfate, 2,2’,5,5’-tetrachloro-4-biphenylsulfate] | over 20 times |  |  |
| Oc1ccc(-c2ccc(Cl)cc2Cl)cc1Cl [4’-OH-PCB 25, 2,3’,4-trichloro-4’-hydroxybiphenyl] |  | 6.46 |  |
| O=S(=O)(O)Oc1ccc(-c2ccc(Cl)c(Cl)c2)cc1 [4’-PCB 12 Sulfate, 3,4-dichloro-4’-biphenylsulfate] | the same as DHEA sulfate |  |  |
| Clc1ccc(-c2ccc(Cl)cc2Cl)cc1 [PCB 28, 2,4,4’-trichlorobiphenyl] |  | 4.32 |  |
